Consider 20 molecules from PubChem BioAssay (NCI).

The structures appear in SMILES notation.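 Briefly, cells in 96-well plates were exposed to five compound concentrations for 48 h, and endpoints were estimated by linear interpolation. GI50: concentration for 50% inhibition of growth. TGI denotes the concentration required for complete inhibition of growth.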 Where a SMILES comes first, the peptide text is derived from it. The star is where a group is joined. Boc = CC(C)(C)OC(=O)*

The first assay relates to EKVX NSCLC. Briefly: DTP human tumour cell line panel, 48 h.
In turn, `COc1ccc(C2CC(c3c(O)ccc4ccccc34)=NN2c2ccc([N+](=O)[O-])cc2[N+](=O)[O-])cc1OC` (stereo unspecified) returned a concentration for total growth inhibition (TGI) greater than 67 µM.
Still for that read-out and setting: as for `CN1C(=O)C2C(=O)N(Cc3ccccc3)CC(=O)N2c2cccnc21` (stereo unspecified), the figure is greater than 100 µM.
`O=C(O)CSc1nnc(COc2ccc(Cl)cc2)n1-c1ccccc1`: the TGI was greater than 100 µM.
For `CN(C)CCCOc1nc2c(c(=O)n(C)c(=O)n2C)n1C` (tested in a mixture with another compound), the TGI is greater than 100 µM.
In the case of `C[N+]1=C2[B-](C(C)(C)C)=[N+](C(C)(C)C)[B-]2(C(C)(C)C)[N+](C)=C2[B-](C(C)(C)C)=[N+](C(C)(C)C)[B-]21C(C)(C)C` (stereo unspecified), the TGI was greater than 100 µM.
In turn, `Brc1ccc(CCNCCN2CCCCC2)cc1` had a TGI greater than 100 µM.
Take `Cc1ccc(C(=O)Nc2ccc(CP(=O)(O)O)cc2CP(=O)(O)O)cc1NC(=O)c1cccc(N)c1`: the concentration for total growth inhibition (TGI) was greater than 100 µM.
As for `OC1C2[C@@H](O)CCCN2C[C@@H](O)[C@H]1O` (stereo partly specified), the total growth inhibition concentration (TGI) was greater than 100 µM.
In the case of `CC[C@]1(Cc2ccc(OC)c(OC)c2)CN(S(=O)(=O)c2ccc(C)cc2)C[C@@H]1OC(C)=O`, the concentration for total growth inhibition (TGI) was greater than 100 µM.
Take `O=C(CC(=O)n1nc(-c2ccccc2)c(N=Nc2ccccc2C(=O)O)c1-c1ccccc1)Nc1ccc(Cl)cc1`: the TGI is greater than 100 µM.
On to `C=C(C)C12CC(COC(=O)c3ccccc3)C34OC5(OC1C3C1OC1(CO)C(O)C1(O)C(OC(=O)c3ccccc3)C(C)C(C(C)CCCCCCC5O)C14)O2` (stereo unspecified), for which the total growth inhibition concentration (TGI) is greater than 100 µM.
`C[C@@]12[C@H]3CC[C@@H]1[C@H](O)C(=O)N2CC3` showed a total growth inhibition concentration (TGI) greater than 100 µM.
For `O=C1CCC[C@@H]2NC[C@@H](c3ccc4c(c3)OCO4)[C@H]12`, the TGI is greater than 25 µM.
Same read-out and setting: for `COc1cc(/C=C2/C(=O)N(C(=O)c3ccccc3O)N=C2C)cc(OC)c1OC` the value was greater than 100 µM; for `CCCc1cc(=O)c2c(C)c3[nH]c4ccc(Cl)cc4c3c(C)c2[nH]1`, 7.72 µM.
Molecule `CC(CN1c2ccccc2Sc2ccccc21)N(C)C` (stereo unspecified) displayed a TGI of 58.7 µM.
On to `Cc1nnc(Nc2ccccc2)o1`, for which the TGI was greater than 100 µM.

The subject of a further assay is HOP-62 NSCLC. Put plainly: DTP human tumour cell line panel, 48 h.
Regarding `COc1ccc(C2CC(c3c(O)ccc4ccccc34)=NN2c2ccc([N+](=O)[O-])cc2[N+](=O)[O-])cc1OC` (stereo unspecified), the total growth inhibition concentration (TGI) is greater than 71.7 µM.
For `CN1C(=O)C2C(=O)N(Cc3ccccc3)CC(=O)N2c2cccnc21` (stereo unspecified), the concentration for total growth inhibition (TGI) was greater than 100 µM.
For `O=C(O)CSc1nnc(COc2ccc(Cl)cc2)n1-c1ccccc1`, the TGI was greater than 100 µM.
The molecule `CN(C)CCCOc1nc2c(c(=O)n(C)c(=O)n2C)n1C` (tested in a mixture with another compound) registered a TGI greater than 100 µM.
Take `C[N+]1=C2[B-](C(C)(C)C)=[N+](C(C)(C)C)[B-]2(C(C)(C)C)[N+](C)=C2[B-](C(C)(C)C)=[N+](C(C)(C)C)[B-]21C(C)(C)C` (stereo unspecified): the TGI was greater than 100 µM.
The same measure, in the same setting: for `Brc1ccc(CCNCCN2CCCCC2)cc1` the value was 34.9 µM; for `Cc1ccc(C(=O)Nc2ccc(CP(=O)(O)O)cc2CP(=O)(O)O)cc1NC(=O)c1cccc(N)c1`, greater than 100 µM.
The same measure, in the same setting: for `OC1C2[C@@H](O)CCCN2C[C@@H](O)[C@H]1O` (stereo partly specified) the value was greater than 100 µM.
`CC[C@]1(Cc2ccc(OC)c(OC)c2)CN(S(=O)(=O)c2ccc(C)cc2)C[C@@H]1OC(C)=O`: the TGI was greater than 100 µM.
In the case of `Cc1c(F)c(N)c2c(=O)cc(-c3ccc(NC(=O)CN(C)C)c(F)c3)oc2c1F`, the GI50 is greater than 100 µM and the concentration for total growth inhibition (TGI) was greater than 100 µM.
`O=C(CC(=O)n1nc(-c2ccccc2)c(N=Nc2ccccc2C(=O)O)c1-c1ccccc1)Nc1ccc(Cl)cc1`: the TGI was greater than 100 µM.
Same read-out and setting: as for `C[C@@]12[C@H]3CC[C@@H]1[C@H](O)C(=O)N2CC3`, the figure is greater than 100 µM.
`COC(=O)CNC(=O)C(Cc1ccccc1)NC(=O)C(CCSC)NC(=O)C(Cc1ccc(O)cc1)NC(=O)OC(C)(C)C` (stereo unspecified) (Boc-YMFG-OMe; configuration not given here): the total growth inhibition concentration (TGI) is greater than 100 µM.
Consider `O=C1CCC[C@@H]2NC[C@@H](c3ccc4c(c3)OCO4)[C@H]12`, for which the TGI is greater than 25 µM.
`Cc1ccc([C@@H]2[C@@H](C(=O)c3ccccn3)[C@H](c3ccc(C)cc3)C[C@](O)(c3ccccn3)[C@H]2C(=O)c2ccccn2)cc1` displayed a TGI greater than 100 µM.
Regarding `CCCc1cc(=O)c2c(C)c3[nH]c4ccc(Cl)cc4c3c(C)c2[nH]1`, the TGI amounted to 6.15 µM.
As to `CC(CN1c2ccccc2Sc2ccccc21)N(C)C` (stereo unspecified), the TGI was found to be 28.5 µM.

The next assay concerns KM12 colon. Put plainly: DTP human tumour cell line panel, 48 h.
The molecule `COc1ccc(C2CC(c3c(O)ccc4ccccc34)=NN2c2ccc([N+](=O)[O-])cc2[N+](=O)[O-])cc1OC` (stereo unspecified) showed a concentration for total growth inhibition (TGI) greater than 76.6 µM.
As to `CN1C(=O)C2C(=O)N(Cc3ccccc3)CC(=O)N2c2cccnc21` (stereo unspecified), the TGI was greater than 100 µM.
In the case of `O=C(O)CSc1nnc(COc2ccc(Cl)cc2)n1-c1ccccc1`, the TGI was greater than 100 µM.
`CN(C)CCCOc1nc2c(c(=O)n(C)c(=O)n2C)n1C` (tested in a mixture with another compound) yielded a TGI greater than 100 µM.
Take `C[N+]1=C2[B-](C(C)(C)C)=[N+](C(C)(C)C)[B-]2(C(C)(C)C)[N+](C)=C2[B-](C(C)(C)C)=[N+](C(C)(C)C)[B-]21C(C)(C)C` (stereo unspecified): the concentration for total growth inhibition (TGI) is greater than 100 µM.
On to `Brc1ccc(CCNCCN2CCCCC2)cc1`, for which the TGI turned out to be 30.2 µM.
Turning to `Cc1ccc(C(=O)Nc2ccc(CP(=O)(O)O)cc2CP(=O)(O)O)cc1NC(=O)c1cccc(N)c1`, the TGI was greater than 100 µM.
In turn, `OC1C2[C@@H](O)CCCN2C[C@@H](O)[C@H]1O` (stereo partly specified) yielded a TGI greater than 100 µM.
`CC[C@]1(Cc2ccc(OC)c(OC)c2)CN(S(=O)(=O)c2ccc(C)cc2)C[C@@H]1OC(C)=O` yielded a concentration for total growth inhibition (TGI) greater than 100 µM.
Take `Cc1c(F)c(N)c2c(=O)cc(-c3ccc(NC(=O)CN(C)C)c(F)c3)oc2c1F`: the TGI is greater than 100 µM.
Consider `O=C(CC(=O)n1nc(-c2ccccc2)c(N=Nc2ccccc2C(=O)O)c1-c1ccccc1)Nc1ccc(Cl)cc1`, for which the total growth inhibition concentration (TGI) is greater than 100 µM.

What is called TGI is the concentration at which net growth stops. As a reminder, the GI50 is the concentration that inhibits growth by half.
